Assay results taken from patent US5278181A, “Soluble alkyl[5-[amino (phenyl)methyl]-1H-benzimidazol-2-yl] carbamate anthelmintics” (priority 1992, dated 1994).
Converted amounts (≈) assume the structure as drawn. “And” between values parts separate entries of the source, which are not always exact repeats. Equal entries are not always repeated.

Assays:
Aqueous solubility = settings: water
B. pahangi and A. viteae = experiment: Antifilarial activity in jirds, dual infection, summary in words; assay type: in vivo; settings: both oral and parenteral routes
Text: (§1) Dual infections of the filarial worms Brugia pahangi and Acanthocheilonema viteae in jirds are used routinely for antifilarial screening [McCall, J. W., McTier, T. L., and Rowan, S. J., "In vivo models for evaluating potential antifilarial agents", Onchocerciasis/Filariasis (Proceedings of a Symposium sponsored by the World Health Organization), Kalamazoo, Mich., Apr. 8-10, 23-24 (1986)].
For this dual infection screen, male Mongolian jirds weighing 50-60 g are infected SC with 10 (5 male and 5 female) adult A. viteae, transplanted under sodium pentobarbital anesthesia (48 mg/kg) from donor hamsters infected SC 8 weeks earlier. Two weeks later, 20 (10 male and 10 female) adult B. pahangi, taken from donor jirds infected IP 8 weeks earlier, are transplanted into the peritoneal cavity of each jird under sodium pentobarbital anesthesia. After an additional week, when the jirds have acceptable levels of microfilaremia, they are randomly allocated to treatment groups of 3 animals each and a nontreated group of 4-6 animals. Microfilaremia is determined on days 0 (just prior to the first dose), 4 and 56 post-treatment. […] Live worms are identified as to species, noted as to sex, and counted. The number of dead and/or encapsulated worms is also recorded. […]

Brugia pahangi [1] = experiment: Antifilarial effect in beagle dogs infected with Brugia pahangi; assay type: in vivo
Text: The infective larvae of B. pahangi were produced and collected as described by McCall [J. Georgia Entomol. Soc. 16:283-293, (1981)]. The dogs were given 100 L3 of B. pahangi by subcutaneous injection (SC) into the dorsum of each hind paw or 200 L3 in one hind paw (i.e., a total inoculum of 200 L3 per dog).
The dogs were randomly allocated to treatment groups containing 4 dogs. The dogs were divided by sex and ranked by declining baseline microfilarial counts (average count based on the 5 bleedings made before the day of treatment). Those dogs which were amicrofilaremic or had very few microfilariae were excluded from the trial. Of the remaining dogs, those with the highest baseline microfilaremias were assigned to seven-dog replicates. The sex of the dogs within three of the replicates was the same, while the fourth replicate contained dogs of both sexes. The dogs of a given sex with the highest levels of microfilaremia were placed in the same replicate. The next set of dogs of that sex with the next highest levels of microfilaremia was assigned to the next replicate, and so on until all of the replicates were filled. The dogs within each complete replicate were assigned to test groups using a table of random numbers [Ostle and Mensing, Statistics in Research, Third Edition, Iowa State University Press, Ames, Iowa, pp. 560-563, (1975)]. The test groups were likewise assigned to either control or treatment groups using the table of random numbers.
The first day of treatment, day 0, was approximately 144 days after infection. Drugs were administered orally as a 10% suspension in HEC-Tween 80 or in soft gelatin capsules. Drugs were administered intramuscularly or subcutaneously as a 10% suspension in peanut oil or in HEC-Tween 80. Groups of four dogs served in sham-treated controls in each experiment. All of the treatments were given by IM injection in the dorsal lumbar muscles.
(§2) All dogs were observed frequently during each day of treatment and daily throughout the remainder of the study for any signs of reactions. In addition, the hair was shaved at the injection sites to facilitate the observation of possible tissue irritation resulting from treatment.
Blood was collected from each dog on days 51, 43, 27, 19, and 5 before treatment to determine baseline microfilaremias and allocate the dogs to treatment groups. Blood was then collected from all dogs on the day before treatment on day -1, on days 7, 10, 14, 21, 28, 35, 42, 49, and 56 days after treatment. All bleedings were done at approximately the same time of day (11:00-12:00 E.S.T.). Two 20-μl blood films were prepared from each sample and stained with giemsa. Microfilarial counts were made from the 2 blood films.
The dogs were euthanized for necropsy either two or six months after the first day of treatment. Just prior to euthanasia, the dogs were given a subcutaneous injection (SC) of a two percent solution of Evans blue into the dorsum of both hind paws in order to help delineate the lymphatic vessels. This was followed at least 30 minutes later with a lethal dose of Fatal-Plus® (Vortech Pharmaceuticals, Dearborn, Mich.). A limited necropsy was performed on each dog with examination of the afferent and efferent lymphatics of both hindlimbs and the popliteal, inguinal, internal and external iliac, and lumbar lymph nodes. Any live or dead worms seen were removed. These vessels and lymph nodes were removed, teased, and soaked overnight in normal saline to allow any worms to migrate out of the tissues. The condition of the worms, their sex and number, and the location from which they were recovered were noted.
Effectiveness against the adult parasites was determined as follows: [formula] Effectiveness against microfilariae for a given day after treatment was determined as follows: [formula]
The adult B. pahangi counts and the microfilarial counts were compared using a one way analysis of variance (ANOVA). […]

Brugia pahangi [2] = experiment: Antifilarial dual infection screen in jirds: adult B. pahangi burden; assay type: in vivo, in Mongolian jirds; settings: SC, day 56
Text: as §1
(§3) For this dual infection screen, male Mongolian jirds weighing 50-60 g are infected SC with 10 (5 male and 5 female) adult A. viteae, transplanted under sodium pentobarbital anesthesia (48 mg/kg) from donor hamsters infected SC 8 weeks earlier. Two weeks later, 20 (10 male and 10 female) adult B. pahangi, taken from donor jirds infected IP 8 weeks earlier, are transplanted into the peritoneal cavity of each jird under sodium pentobarbital anesthesia. After an additional week, when the jirds have acceptable levels of microfilaremia, they are randomly allocated to treatment groups of 3 animals each and a nontreated group of 4-6 animals. Microfilaremia is determined on days 0 (just prior to the first dose), 4 and 56 post-treatment. Unless indicated otherwise, compounds are suspended in hydroxyethylcellulose (0.5%) - Tween 80 (0.1%) and administered SC at 100 mg/kg/day for 5 consecutive days. All jirds are killed on day 56 post-treatment to determine the effects of drugs on adults of A. viteae and B. pahangi. Live worms are identified as to species, noted as to sex, and counted. The number of dead and/or encapsulated worms is also recorded. A reduction of ≥80% in microfilaremia or ≥50% in adult worm burden (either species) compared with pre-treatment microfilaremia or non-treated control worm burden, respectively, is considered to be significant. For secondary testing with this dual infection screen, groups of 7 animals each are used. For oral dosing, drugs are dissolved or suspended in hydroxyethylcellulose - Tween 80 and administered by gavage.

Acanthocheilonema viteae = experiment: Antifilarial dual infection screen in jirds: adult A. viteae burden and microfilaremia; assay type: in vivo, in Mongolian jirds; settings: 25 mg/kg/day × 5 days, SC
Text: as §1, §3

[3] = Local muscle irritation at injection site in beagle dogs; assay type: in vivo; settings: IM, 12.5-50 mg/kg/day for 2 to 3 days
Text: as §2

[4] = IM, 6.25 mg/kg/day × 3, peanut oil
[5] = IM, 12.5 mg/kg/day × 3, peanut oil
[6] = IM, 25 mg/kg/day × 3, peanut oil
[7] = IM, 50 mg/kg/day × 1, peanut oil
[8] = IM, 50 mg/kg/day × 2, peanut oil
[9] = IM, 50 mg/kg/day × 3, peanut oil
[10] = PO, 200 mg/kg/day bid × 3, HEC-Tween 80
[11] = SC, 50 mg/kg/day × 3, HEC-Tween 80

Structure (SMILES): COC(=O)Nc1nc2cc(C(N)c3ccc(F)cc3)ccc2[nH]1 (racemic) [Example 1, Methyl (±)-[5-[Amino(4-Fluorophenyl)Methyl]-1H-Benzimidazol-2-yl]Carbamate]
- solubility (Aqueous solubility): 180 µg/mL (≈ 573 µM)
- antifilarial activity in jirds (B. pahangi and A. viteae): outstanding antifilarial activity
- Dogs cured/Treated (Brugia pahangi [1]; [4]): 0/4
- Percent reduction Macrofilariae (Brugia pahangi [1]; [4]): 38%
- Percent reduction Microfilariae (Brugia pahangi [1]; [4]): 50%
- Dogs cured/Treated (Brugia pahangi [1]; [5]): 1/4
- Percent reduction Macrofilariae (Brugia pahangi [1]; [5]): 91%
- Percent reduction Microfilariae (Brugia pahangi [1]; [5]): 76%
- Dogs cured/Treated (Brugia pahangi [1]; [6]): 4/4
- Percent reduction Macrofilariae (Brugia pahangi [1]; [6]): 100%
- Percent reduction Microfilariae (Brugia pahangi [1]; [6]): 72%
- Dogs cured/Treated (Brugia pahangi [1]; [7]): 0/4
- Percent reduction Macrofilariae (Brugia pahangi [1]; [7]): 85%
- Percent reduction Microfilariae (Brugia pahangi [1]; [7]): 55%
- Dogs cured/Treated (Brugia pahangi [1]; [8]): 2/4
- Percent reduction Macrofilariae (Brugia pahangi [1]; [8]): 92%
- Percent reduction Microfilariae (Brugia pahangi [1]; [8]): 59%
- Dogs cured/Treated (Brugia pahangi [1]; [9]): 4/4
- Percent reduction Macrofilariae (Brugia pahangi [1]; [9]): 100%
- Percent reduction Microfilariae (Brugia pahangi [1]; IM, 50 mg/kg/day × 3, peanut oil, 50 mg/kg/day): 100% and 99%
- cure of B. pahangi infections (Brugia pahangi [1]; IM, 12.5-50 mg/kg/day for 2 to 3 days): cured dogs of B. pahangi infections
- Percent reduction Macrofilariae (Brugia pahangi [1]; [10]): 93%
- Percent reduction Microfilariae (Brugia pahangi [1]; [10]): 97%
- Dogs cured/Treated (Brugia pahangi [1]; PO, 200 mg/kg/day bid × 3, HEC-Tween 80, necropsied 6 months): 1/3
- Dogs cured/Treated (Brugia pahangi [1]; [11]): 1/4
- Percent reduction Macrofilariae (Brugia pahangi [1]; [11]): 76%
- Percent reduction Microfilariae (Brugia pahangi [1]; [11]): 78%
- cure of B. pahangi infections (Brugia pahangi [1]; administered orally): also curative when administered orally
- % Macrofilarial reduction, B. pahangi (Brugia pahangi [2]; 1.56 mg/kg/day × 5 days): 16%
- % Macrofilarial reduction, B. pahangi (Brugia pahangi [2]; 6.25 mg/kg/day × 5 days): 92%
- % Macrofilarial reduction, B. pahangi (Brugia pahangi [2]; 12.5 mg/kg/day × 5 days): 100%
- % Macrofilarial reduction, B. pahangi (Brugia pahangi [2]; 25 mg/kg/day × 5 days): 100%
- % Microfilarial reduction, A. viteae, Day 4 (Acanthocheilonema viteae; Day 4): 0%
- % Macrofilarial reduction, A. viteae (Acanthocheilonema viteae; day 56): 88%
- local muscle irritation [3]: no local muscle irritation
